Several values for one entry are separate records, joined by “and”; a condition that tells them apart may be missing. Identical values can stand only once.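 Grown in 96-well plates, cells were treated for 48 hours with each compound at five concentrations. Insufficient inhibition: endpoint recorded as highest concentration tested. Abbreviation: GI50, concentration required for 50% inhibition of growth. TGI: concentration producing complete growth inhibition.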
Assays:
Experiment in all cases: growth of human tumour cells (NCI), 48 h; in the data active = GI50 below about 0.43 µM; inactive = the rest
SK-OV-3 ovarian = tested on: SK-OV-3 ovarian
SNB-78 CNS = tested on: SNB-78 CNS
HOP-62 NSCLC = tested on: HOP-62 NSCLC
UO-31 renal = tested on: UO-31 renal
EKVX NSCLC = tested on: EKVX NSCLC
NCI-H226 lung = tested on: NCI-H226 lung
KM20L2 colon = tested on: KM20L2 colon
XF 498 CNS = tested on: XF 498 CNS
OVCAR-4 ovarian = tested on: OVCAR-4 ovarian
TK-10 renal = tested on: TK-10 renal
MALME-3M melanoma = tested on: MALME-3M melanoma
SK-MEL-28 melanoma = tested on: SK-MEL-28 melanoma
LOX IMVI melanoma = tested on: LOX IMVI melanoma
ACHN renal = tested on: ACHN renal
IGROV1 ovarian = tested on: IGROV1 ovarian
HOP-18 NSCLC = tested on: HOP-18 NSCLC
M14 melanoma = tested on: M14 melanoma
HCT-116 colon = tested on: HCT-116 colon
SK-MEL-2 melanoma = tested on: SK-MEL-2 melanoma
CCRF-CEM leukemia = tested on: CCRF-CEM leukemia
NCI-H522 lung = tested on: NCI-H522 lung
SF-295 CNS = tested on: SF-295 CNS
M19-MEL melanoma = tested on: M19-MEL melanoma
DLD-1 colon = tested on: DLD-1 colon
UACC-62 melanoma = tested on: UACC-62 melanoma
COLO 205 colon = tested on: COLO 205 colon
RPMI-8226 leukemia = tested on: RPMI-8226 leukemia
OVCAR-3 ovarian = tested on: OVCAR-3 ovarian
SF-539 CNS = tested on: SF-539 CNS
CAKI-1 renal = tested on: CAKI-1 renal
K-562 leukemia = tested on: K-562 leukemia
SF-268 CNS = tested on: SF-268 CNS
KM12 colon = tested on: KM12 colon
SK-MEL-5 melanoma = tested on: SK-MEL-5 melanoma
DMS 114 small cell lung = tested on: DMS 114 small cell lung
HOP-92 NSCLC = tested on: HOP-92 NSCLC
OVCAR-5 ovarian = tested on: OVCAR-5 ovarian
DMS 273 small cell lung = tested on: DMS 273 small cell lung
HT29 colon = tested on: HT29 colon
MOLT-4 leukemia = tested on: MOLT-4 leukemia
SR leukemia = tested on: SR leukemia
A549 NSCLC = tested on: A549 NSCLC
LXFL 529 NSCLC = tested on: LXFL 529 NSCLC
NCI-H460 lung = tested on: NCI-H460 lung
786-0 renal = tested on: 786-0 renal
NCI-H23 lung = tested on: NCI-H23 lung
U251 CNS = tested on: U251 CNS
HCC-2998 colon = tested on: HCC-2998 colon
SW-620 colon = tested on: SW-620 colon
A498 renal = tested on: A498 renal
OVCAR-8 ovarian = tested on: OVCAR-8 ovarian
SNB-19 CNS = tested on: SNB-19 CNS
HL-60(TB) leukemia = tested on: HL-60(TB) leukemia
UACC-257 melanoma = tested on: UACC-257 melanoma
SNB-75 CNS = tested on: SNB-75 CNS
RXF 393 renal = tested on: RXF 393 renal
HCT-15 colon = tested on: HCT-15 colon
SN12C renal = tested on: SN12C renal

CN(C)c1ccc(/C=c2\sc3nnc(Cc4ccccc4)n3c2=O)cc1
> 10 µM and 29.2 µM: TGI (SW-620 colon)
inactive: GI50 (SK-OV-3 ovarian) > 100 µM | GI50 (SNB-78 CNS) > 100 µM | GI50 (HOP-62 NSCLC) > 100 µM | GI50 (EKVX NSCLC) > 100 µM | GI50 (NCI-H226 lung) > 100 µM | GI50 (KM20L2 colon) > 100 µM | GI50 (XF 498 CNS) > 100 µM | GI50 (OVCAR-4 ovarian) > 100 µM | GI50 (TK-10 renal) > 100 µM | GI50 (MALME-3M melanoma) > 100 µM | GI50 (SK-MEL-28 melanoma) > 100 µM | GI50 (ACHN renal) > 10 µM | GI50 (IGROV1 ovarian) > 100 µM | GI50 (HOP-18 NSCLC) > 100 µM | GI50 (M14 melanoma) > 100 µM | GI50 (HCT-116 colon) > 10 µM | GI50 (SK-MEL-2 melanoma) > 100 µM | GI50 (CCRF-CEM leukemia) > 100 µM | GI50 (NCI-H522 lung) > 100 µM | GI50 (SF-295 CNS) > 100 µM | GI50 (DLD-1 colon) > 100 µM | GI50 (UACC-62 melanoma) > 100 µM | GI50 (RPMI-8226 leukemia) > 100 µM | GI50 (OVCAR-3 ovarian) > 100 µM | GI50 (SF-539 CNS) > 100 µM | GI50 (CAKI-1 renal) > 100 µM | GI50 (K-562 leukemia) > 100 µM | GI50 (SF-268 CNS) > 10 µM | GI50 (KM12 colon) > 100 µM | GI50 (SK-MEL-5 melanoma) > 100 µM | GI50 (DMS 114 small cell lung) > 10 µM | GI50 (OVCAR-5 ovarian) > 100 µM | GI50 (DMS 273 small cell lung) > 10 µM | GI50 (HT29 colon) > 10 µM | GI50 (MOLT-4 leukemia) > 100 µM | GI50 (SR leukemia) > 100 µM | GI50 (A549 NSCLC) > 10 µM | GI50 (LXFL 529 NSCLC) > 100 µM | GI50 (NCI-H460 lung) > 100 µM | GI50 (786-0 renal) > 100 µM | GI50 (NCI-H23 lung) > 100 µM | GI50 (U251 CNS) > 100 µM | GI50 (SW-620 colon) > 10 µM | GI50 (A498 renal) > 100 µM | GI50 (OVCAR-8 ovarian) > 100 µM | GI50 (SNB-19 CNS) > 100 µM | GI50 (UACC-257 melanoma) > 100 µM | GI50 (SNB-75 CNS) > 100 µM | GI50 (RXF 393 renal) > 10 µM | GI50 (HCT-15 colon) > 10 µM | GI50 (SN12C renal) > 100 µM
> 10 µM and 33.8 µM: TGI (DMS 114 small cell lung)
> 100 µM: TGI (SK-OV-3 ovarian) | TGI (SNB-78 CNS) | TGI (HOP-62 NSCLC) | TGI (UO-31 renal) | TGI (EKVX NSCLC) | TGI (NCI-H226 lung) | TGI (KM20L2 colon) | TGI (XF 498 CNS) | TGI (OVCAR-4 ovarian) | TGI (TK-10 renal) | TGI (MALME-3M melanoma) | TGI (SK-MEL-28 melanoma) | TGI (ACHN renal) | TGI (IGROV1 ovarian) | TGI (HOP-18 NSCLC) | TGI (M14 melanoma) | TGI (SK-MEL-2 melanoma) | TGI (CCRF-CEM leukemia) | TGI (NCI-H522 lung) | TGI (SF-295 CNS) | TGI (M19-MEL melanoma) | TGI (DLD-1 colon) | TGI (UACC-62 melanoma) | TGI (RPMI-8226 leukemia) | TGI (OVCAR-3 ovarian) | TGI (SF-539 CNS) | TGI (CAKI-1 renal) | TGI (K-562 leukemia) | TGI (KM12 colon) | TGI (SK-MEL-5 melanoma) | TGI (HOP-92 NSCLC) | TGI (OVCAR-5 ovarian) | TGI (DMS 273 small cell lung) | TGI (HT29 colon) | TGI (MOLT-4 leukemia) | TGI (SR leukemia) | TGI (A549 NSCLC) | TGI (LXFL 529 NSCLC) | TGI (NCI-H460 lung) | TGI (786-0 renal) | TGI (NCI-H23 lung) | TGI (U251 CNS) | TGI (HCC-2998 colon) | TGI (A498 renal) | TGI (OVCAR-8 ovarian) | TGI (SNB-19 CNS) | TGI (UACC-257 melanoma) | TGI (SNB-75 CNS) | TGI (SN12C renal)
> 10 µM and 37.8 µM: TGI (HCT-15 colon)
> 10 µM: TGI (LOX IMVI melanoma) | TGI (COLO 205 colon) | TGI (HL-60(TB) leukemia)
> 10 µM and 97.3 µM: TGI (RXF 393 renal)
> 10 µM and 35.4 µM: TGI (HCT-116 colon)
> 10 µM and 57.8 µM: TGI (SF-268 CNS)

COc1ccc([Se]c2ccc(OC)cc2)cc1
96.8 µM: TGI (SNB-75 CNS)
93.5 µM: TGI (NCI-H226 lung)
9.8 µM: TGI (UO-31 renal)
98.7 µM: TGI (HOP-92 NSCLC)
> 100 µM: TGI (SK-OV-3 ovarian) | TGI (HOP-62 NSCLC) | TGI (KM20L2 colon) | TGI (XF 498 CNS) | TGI (TK-10 renal) | TGI (MALME-3M melanoma) | TGI (SK-MEL-28 melanoma) | TGI (LOX IMVI melanoma) | TGI (ACHN renal) | TGI (IGROV1 ovarian) | TGI (HOP-18 NSCLC) | TGI (M14 melanoma) | TGI (HCT-116 colon) | TGI (SK-MEL-2 melanoma) | TGI (CCRF-CEM leukemia) | TGI (NCI-H522 lung) | TGI (SF-295 CNS) | TGI (M19-MEL melanoma) | TGI (DLD-1 colon) | TGI (UACC-62 melanoma) | TGI (COLO 205 colon) | TGI (RPMI-8226 leukemia) | TGI (OVCAR-3 ovarian) | TGI (SF-539 CNS) | TGI (CAKI-1 renal) | TGI (K-562 leukemia) | TGI (SF-268 CNS) | TGI (KM12 colon) | TGI (SK-MEL-5 melanoma) | TGI (DMS 114 small cell lung) | TGI (DMS 273 small cell lung) | TGI (HT29 colon) | TGI (MOLT-4 leukemia) | TGI (A549 NSCLC) | TGI (NCI-H460 lung) | TGI (786-0 renal) | TGI (NCI-H23 lung) | TGI (U251 CNS) | TGI (HCC-2998 colon) | TGI (SW-620 colon) | TGI (A498 renal) | TGI (OVCAR-8 ovarian) | TGI (SNB-19 CNS) | TGI (HL-60(TB) leukemia) | TGI (UACC-257 melanoma) | TGI (RXF 393 renal) | TGI (HCT-15 colon) | TGI (SN12C renal)

COc1cc2c(cc1OC)C(=O)N1CCCC1C(=O)S2 (configuration not stated)
> 100 µM: TGI (SK-OV-3 ovarian) | TGI (SNB-78 CNS) | TGI (HOP-62 NSCLC) | TGI (UO-31 renal) | TGI (EKVX NSCLC) | TGI (KM20L2 colon) | TGI (XF 498 CNS) | TGI (TK-10 renal) | TGI (MALME-3M melanoma) | TGI (SK-MEL-28 melanoma) | TGI (LOX IMVI melanoma) | TGI (ACHN renal) | TGI (IGROV1 ovarian) | TGI (HOP-18 NSCLC) | TGI (M14 melanoma) | TGI (HCT-116 colon) | TGI (SK-MEL-2 melanoma) | TGI (CCRF-CEM leukemia) | TGI (NCI-H522 lung) | TGI (SF-295 CNS) | TGI (DLD-1 colon) | TGI (UACC-62 melanoma) | TGI (COLO 205 colon) | TGI (RPMI-8226 leukemia) | TGI (OVCAR-3 ovarian) | TGI (SF-539 CNS) | TGI (K-562 leukemia) | TGI (SF-268 CNS) | TGI (KM12 colon) | TGI (SK-MEL-5 melanoma) | TGI (DMS 114 small cell lung) | TGI (HOP-92 NSCLC) | TGI (OVCAR-5 ovarian) | TGI (DMS 273 small cell lung) | TGI (MOLT-4 leukemia) | TGI (SR leukemia) | TGI (A549 NSCLC) | TGI (LXFL 529 NSCLC) | TGI (NCI-H460 lung) | TGI (786-0 renal) | TGI (NCI-H23 lung) | TGI (U251 CNS) | TGI (HCC-2998 colon) | TGI (SW-620 colon) | TGI (OVCAR-8 ovarian) | TGI (SNB-19 CNS) | TGI (HL-60(TB) leukemia) | TGI (UACC-257 melanoma) | TGI (RXF 393 renal) | TGI (HCT-15 colon) | TGI (SN12C renal)

Reference: PubChem BioAssay (NCI)
